Test results reported in patent publication US11780826B2 (Amgen Inc., priority 2017, dated 2023).

The compounds below were run on Bovine cardiac myofibrils (assay: In vitro model of dose-dependent myofibril ATPase modulation (AC1.4, pyruvate kinase/lactate dehydrogenase-coupled ATPase assay at pCa25)). Conditions: concentration at which ATPase activity was 1.4-fold higher than the bottom of the dose curve, mean of a minimum of two independent tests.
Format: biochemical
Method in brief: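 ATP turnover tracked as NADH absorbance loss at 340 nm, coupled via pyruvate kinase/lactate dehydrogenase, with 1 mM ATP, 2 mM MgCl2 and 12 mM K-PIPES at pH 6.80 (22° C) under EGTA/CaCl2 calcium buffering. Substrate was detergent-treated bovine cardiac myofibrils; 4-parameter curve fit, AC1.4 averaged over at least two runs.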
For `N#CC1CN(S(=O)(=O)N2CCC[C@H](C(=O)N3CCC[C@@H]3C(=O)N[C@@H](CO)c3ccc(Cl)c(F)c3)C2)C1` [Example 441, N-((1R)-1-(4-chloro-3-fluorophenyl)-2-hydroxyethyl)-1-(((3S)-1-((3-cyano-1-azetidinyl)sulfonyl)-3-piperidinyl)carbonyl)-D-prolinamide], the AC1.4 was 1.7265 µM. For `N#CC1CN(S(=O)(=O)N2CCC[C@H](C(=O)N3CCC[C@@H]3C(=O)NC3CCc4ccccc43)C2)C1` (stereo partly drawn) [Example 442, (2R)-1-((S)-1-((3-cyanoazetidin-1-yl)sulfonyl)piperidine-3-carbonyl)-N-(2,3-dihydro-1H-inden-1-yl)pyrrolidine-2-carboxamide], the AC1.4 was 1.7305 µM. `Cc1cc(Cl)cc(CNC(=O)[C@H]2CCCN2C(=O)[C@H]2CCCN(S(=O)(=O)N3CC(C#N)C3)C2)c1` [Example 443, N-(3-chloro-5-methylbenzyl)-1-(((3S)-1-((3-cyano-1-azetidinyl)sulfonyl)-3-piperidinyl)carbonyl)-D-prolinamide] showed an AC1.4 of 1.7885 µM. `CS(=O)(=O)c1ccnc(C(=O)N2[C@@H](C(=O)N[C@@H](c3ccc(C(F)(F)F)cc3F)C3CC3)C[C@H]3C[C@H]32)c1` [Example 444, (1R,3R,5R)-N-((R)-cyclopropyl(2-fluoro-4-(trifluoromethyl)phenyl)methyl)-2-(4-(methylsulfonyl)picolinoyl)-2-azabicyclo[3.1.0]hexane-3-carboxamide] gave an AC1.4 of 1.547 µM. `Cc1cc(CNC(=O)[C@H]2CCCN2C(=O)[C@H]2CCCN(S(=O)(=O)N3CC(C#N)C3)C2)cc(C)c1F` [Example 445, 1-(((3S)-1-((3-cyano-1-azetidinyl)sulfonyl)-3-piperidinyl)carbonyl)-N-(4-fluoro-3,5-dimethylbenzyl)-D-prolinamide] was tested, and the AC1.4 was 1.823 µM. Compound `NS(=O)(=O)c1cccc(C(=O)N2CC(F)(F)C[C@@H]2C(=O)N[C@@H](c2ccc(C(F)(F)F)cc2F)C2CC2)c1` [Example 446, N-((R)-cyclopropyl(2-fluoro-4-(trifluoromethyl)phenyl)methyl)-4,4-difluoro-1-(3-sulfamoylbenzoyl)-D-prolinamide] has an AC1.4 of 1.826 µM. For `N#CC1CN(S(=O)(=O)N2CCC[C@H](C(=O)N3CCC[C@@H]3C(=O)NCc3ccc(C4CC4)cc3)C2)C1` [Example 447, 1-(((3S)-1-((3-cyano-1-azetidinyl)sulfonyl)-3-piperidinyl)carbonyl)-N-(4-cyclopropylbenzyl)-D-prolinamide], the AC1.4 was 1.831 µM. `N#CC1CN(S(=O)(=O)N2CCC[C@H](C(=O)N3CCOC[C@@H]3C(=O)NCc3ccc(C(F)F)cc3)C2)C1` [Example 448, (3R)-4-(((3S)-1-((3-cyano-1-azetidinyl)sulfonyl)-3-piperidinyl)carbonyl)-N-(4-(difluoromethyl)benzyl)-3-morpholinecarboxamide] showed an AC1.4 of 1.844 µM. `O=C(NCc1ccc(C(F)(F)F)cc1F)[C@H]1CCCN1C(=O)c1cccc(S(=O)(=O)N2CC(O)C2)c1` [Example 449, N-(2-fluoro-4-(trifluoromethyl)benzyl)-1-(3-((3-hydroxy-1-azetidinyl)sulfonyl)benzoyl)-D-prolinamide] gave an AC1.4 of 1.845 µM. Compound `O=C(NCc1ccc(C(F)(F)F)cc1)[C@H]1CCCN1C(=O)[C@H]1CCCN(S(=O)(=O)N2CC(F)(C3CC3)C2)C1` [Example 450, 1-(((3S)-1-((3-cyclopropyl-3-fluoro-1-azetidinyl)sulfonyl)-3-piperidinyl)carbonyl)-N-(4-(trifluoromethyl)benzyl)-D-prolinamide] has an AC1.4 of 1.8545 µM. `O=C(N[C@@H](c1ccc(C(F)(F)F)cc1F)C1CC1)[C@H]1CCCN1C(=O)c1cccc(C2(F)CN(S(=O)(=O)C3COC3)C2)c1` [Example 451, N-((R)-cyclopropyl(2-fluoro-4-(trifluoromethyl)phenyl)methyl)-1-(3-(3-fluoro-1-(3-oxetanylsulfonyl)-3-azetidinyl)benzoyl)-D-prolinamide] showed an AC1.4 of 1.8635 µM. `Cc1ccc(C(C)NC(=O)[C@H]2CCCN2C(=O)[C@H]2CCCN(S(=O)(=O)N3CC(C#N)C3)C2)cc1` (stereo partly drawn) [Example 452, (2R)-1-((S)-1-((3-cyanoazetidin-1-yl)sulfonyl)piperidine-3-carbonyl)-N-(1-(p-tolyl)ethyl)pyrrolidine-2-carboxamide] gave an AC1.4 of 1.8655 µM. `CC[C@@H](NC(=O)[C@H]1CCCN1C(=O)c1cccc(S(C)(=O)=O)c1)c1cc(F)c(Cl)cc1F` [Example 453, N-((1R)-1-(4-chloro-2,5-difluorophenyl)propyl)-1-(3-(methylsulfonyl)benzoyl)-D-prolinamide] was tested, and the AC1.4 was 1.5515 µM. Compound `O=C(NCc1ccc(C(F)(F)F)cc1)[C@H]1CCCN1C(=O)c1cccc(S(=O)(=O)Cc2ccccc2)c1` [Example 454, 1-(3-(benzylsulfonyl)benzoyl)-N-(4-(trifluoromethyl)benzyl)-D-prolinamide] has an AC1.4 of 1.8665 µM. Work on `C[C@H](C(=O)NCc1cccc(C(F)(F)F)c1)N(C)C(=O)c1cccc(S(=O)(=O)N2CC(C#N)C2)c1` [Example 455, 3-((3-cyano-1-azetidinyl)sulfonyl)-N-methyl-N-((1R)-1-methyl-2-oxo-2-((3-(trifluoromethyl)benzyl)amino)ethyl)benzamide] yielded an AC1.4 of 1.877 µM. Work on `N#CC1(c2cccc(C(=O)N3[C@@H](C(=O)N[C@@H](c4ccc(C(F)(F)F)cc4F)C4COC4)C[C@H]4C[C@H]43)c2)CC1` [Example 456, (1R,3R,5R)-2-(3-(1-cyanocyclopropyl)benzoyl)-N-((R)-(2-fluoro-4-(trifluoromethyl)phenyl)(3-oxetanyl)methyl)-2-azabicyclo[3.1.0]hexane-3-carboxamide] yielded an AC1.4 of 1.882 µM. For `COc1ccc(CNC(=O)[C@H]2CCCN2C(=O)[C@H]2CCCN(S(=O)(=O)N3CC(C#N)C3)C2)cc1F` [Example 457, 1-(((3S)-1-((3-cyano-1-azetidinyl)sulfonyl)-3-piperidinyl)carbonyl)-N-(3-fluoro-4-methoxybenzyl)-D-prolinamide], the AC1.4 was 1.8865 µM. In the case of `Cc1cc(C(=O)N2[C@@H](C(=O)N[C@@H](c3ccc(C(F)(F)F)cc3F)C3CC3)C[C@H]3C[C@H]32)c(NC2CC2)cn1` [Example 458, (1R,3R,5R)-2-((5-(cyclopropylamino)-2-methyl-4-pyridinyl)carbonyl)-N-((R)-cyclopropyl(2-fluoro-4-(trifluoromethyl)phenyl)methyl)-2-azabicyclo[3.1.0]hexane-3-carboxamide], the AC1.4 is reported as 1.5845 µM. With `CN(C)S(=O)(=O)c1cccc(C(=O)N2CCC[C@@H]2C(=O)NCc2ccc(C(F)(F)F)cc2F)c1` [Example 459, 1-(3-(dimethylsulfamoyl)benzoyl)-N-(2-fluoro-4-(trifluoromethyl)benzyl)-D-prolinamide] the AC1.4 was 1.8995 µM. Compound `N#CC1CC(S(=O)(=O)c2cccc(C(=O)N3CCCC[C@@H]3C(=O)NCc3ccc(C(F)(F)F)nc3)c2)C1` (stereo partly drawn) [Example 460, (R)-1-(3-((3-cyanocyclobutyl)sulfonyl)benzoyl)-N-((6-(trifluoromethyl)pyridin-3-yl)methyl)piperidine-2-carboxamide] has an AC1.4 of 1.915 µM. For `O=C(NCc1ccc(C(F)(F)F)cc1)[C@H]1CCCN1C(=O)c1cccc(S(=O)(=O)N2CC(F)(F)C2)c1` [Example 461, 1-((3-((3,3-difluoro-1-azetidinyl)sulfonyl)phenyl)carbonyl)-N-(4-(trifluoromethyl)benzyl)-D-prolinamide], the AC1.4 was 1.9174 µM. In the case of `C[C@H](NC(=O)[C@H]1CCCN1C(=O)[C@H]1CCCN(S(=O)(=O)N2CC(C#N)C2)C1)c1ccc(Cl)c(F)c1` [Example 462, N-((1S)-1-(4-chloro-3-fluorophenyl)ethyl)-1-(((3S)-1-((3-cyano-1-azetidinyl)sulfonyl)-3-piperidinyl)carbonyl)-D-prolinamide], the AC1.4 is reported as 1.9235 µM. `O=C(NCc1ccc(C(F)(F)F)cc1)[C@H]1CCCN1C(=O)[C@H]1CCCN(S(=O)(=O)N2CC(F)(c3ccccc3)C2)C1` [Example 463, 1-(((3S)-1-((3-fluoro-3-phenyl-1-azetidinyl)sulfonyl)-3-piperidinyl)carbonyl)-N-(4-(trifluoromethyl)benzyl)-D-prolinamide] was tested, and the AC1.4 was 1.9305 µM. `CS(=O)(=O)c1ccc(F)c(C(=O)N2CCC[C@@H]2C(=O)N[C@@H](c2ccc(C(F)(F)F)cc2F)C2CC2)c1` [Example 464, N-((R)-cyclopropyl(2-fluoro-4-(trifluoromethyl)phenyl)methyl)-1-(2-fluoro-5-(methylsulfonyl)benzoyl)-D-prolinamide] was tested, and the AC1.4 was 1.612 µM. `C[C@@H](NC(=O)[C@H]1CCCN1C(=O)[C@H]1CCCN(S(=O)(=O)N2CC(C#N)C2)C1)c1cccc(C(F)(F)F)c1` [Example 465, 1-(((3S)-1-((3-cyano-1-azetidinyl)sulfonyl)-3-piperidinyl)carbonyl)-N-((1R)-1-(3-(trifluoromethyl)phenyl)ethyl)-D-prolinamide] was tested, and the AC1.4 was 1.9455 µM. `C[C@@H](NC(=O)[C@H]1CCCN1C(=O)c1cccc(S(=O)(=O)N2CC(C)(O)C2)c1)c1ccc(C(F)(F)F)cc1` [Example 466, 1-(3-((3-hydroxy-3-methyl-1-azetidinyl)sulfonyl)benzoyl)-N-((1R)-1-(4-(trifluoromethyl)phenyl)ethyl)-D-prolinamide] gave an AC1.4 of 1.961 µM. Work on `O=C(NCc1ccc(C(F)(F)F)cc1)[C@H]1CCCN1C(=O)[C@H]1CCCN(S(=O)(=O)N2CC(O)(C(F)(F)F)C2)C1` [Example 467, 1-(((3S)-1-((3-hydroxy-3-(trifluoromethyl)-1-azetidinyl)sulfonyl)-3-piperidinyl)carbonyl)-N-(4-(trifluoromethyl)benzyl)-D-prolinamide] yielded an AC1.4 of 1.9675 µM. In the case of `CC[C@H](NC(=O)[C@H]1CCCN1C(=O)[C@H]1CCCN(S(=O)(=O)N2CC(C#N)C2)C1)c1cc(F)cc(F)c1` [Example 468, 1-(((3S)-1-((3-cyano-1-azetidinyl)sulfonyl)-3-piperidinyl)carbonyl)-N-((1S)-1-(3,5-difluorophenyl)propyl)-D-prolinamide], the AC1.4 is reported as 1.9855 µM.
